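1) Cells in 96-well plates. 2) Compound, 48 h, 5 concentrations. 3) Linear interpolation between surrounding doses. 4) Unreached endpoint = highest concentration. GI50 is the concentration that inhibits growth by half.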 Active and inactive are the calls of the source. No stated cut-off is given here; in the data, active = GI50 up to about 1.1 µM and inactive = higher.
Legend:
Experiment in all cases: DTP human tumour cell line panel, 48 h
UACC-257 = test system: UACC-257
NCI-H23 = test system: NCI-H23
HCT-15 = test system: HCT-15
RPMI-8226 = test system: RPMI-8226
OVCAR-8 = test system: OVCAR-8
T47D = test system: T47D
Hs-578T = test system: Hs-578T
CAKI-1 = test system: CAKI-1
EKVX = test system: EKVX
SK-MEL-5 = test system: SK-MEL-5
SN12C = test system: SN12C
SF-295 = test system: SF-295
NCI/ADR-RES = test system: NCI/ADR-RES
SNB-75 = test system: SNB-75
BT-549 = test system: BT-549
A549 = test system: A549
NCI-H460 = test system: NCI-H460
MDA-MB-435 = test system: MDA-MB-435
K562 = test system: K562
HL-60 = test system: HL-60

SMILES | GI50 (UACC-257) | GI50 (NCI-H23) | GI50 (HCT-15) | GI50 (RPMI-8226) | GI50 (OVCAR-8) | GI50 (T47D) | GI50 (Hs-578T) | GI50 (CAKI-1) | GI50 (EKVX) | GI50 (SK-MEL-5) | GI50 (SN12C) | GI50 (SF-295) | GI50 (NCI/ADR-RES) | GI50 (SNB-75) | GI50 (BT-549) | GI50 (A549) | GI50 (NCI-H460) | GI50 (MDA-MB-435) | GI50 (K562) | GI50 (HL-60)
Cn1c(=O)c2c(no[n+]2[O-])c2ccccc21 | 15.3 µM (inactive) | 15 µM (inactive) | 11.1 µM | 22.2 µM (inactive) | 12.7 µM (inactive) | 21.6 µM (inactive) | 23.3 µM (inactive) | 18.2 µM (inactive) | 18.3 µM (inactive) | 12.4 µM (inactive) | 22.8 µM (inactive) | 21.6 µM (inactive) | 20.8 µM (inactive) | 18.6 µM (inactive) | 15 µM (inactive) | 23.3 µM (inactive) | 17.8 µM (inactive) | 24.8 µM (inactive) | 14.3 µM (inactive) | 
CCCCC/C(=N\c1[nH]cnc1C(N)=O)OCC | > 100 µM (inactive) | > 100 µM (inactive) | > 100 µM | > 100 µM (inactive) | > 100 µM (inactive) |  | > 100 µM (inactive) | > 100 µM (inactive) | 32.3 µM (inactive) | > 100 µM (inactive) | > 100 µM (inactive) | > 100 µM (inactive) | > 100 µM (inactive) |  | > 100 µM (inactive) | > 100 µM (inactive) | > 100 µM (inactive) | > 100 µM (inactive) | > 100 µM (inactive) | > 100 µM (inactive)
COc1ccc(CCN2CCc3c(C)c(C#N)c4nc5ccccc5n4c32)cc1OC | 33.2 µM (inactive) | 45.3 µM (inactive) | 29 µM |  | 35.3 µM (inactive) |  | 12.9 µM (inactive) | > 100 µM (inactive) |  | 19.6 µM (inactive) | 34.2 µM (inactive) | 42.4 µM (inactive) | 27.4 µM (inactive) | 24.8 µM (inactive) | 27.2 µM (inactive) | 45.9 µM (inactive) | 20.2 µM (inactive) | 14.3 µM (inactive) | 15.6 µM (inactive) | 33.9 µM (inactive)
COc1ccc(/C=N/n2c(=O)[nH]c3ccccc3c2=O)cc1 | > 100 µM (inactive) | > 100 µM (inactive) | > 100 µM | > 100 µM (inactive) | > 100 µM (inactive) | > 100 µM (inactive) | 36.4 µM (inactive) | > 100 µM (inactive) | 59.8 µM (inactive) | > 100 µM (inactive) | > 100 µM (inactive) | > 100 µM (inactive) | > 100 µM (inactive) | 50.8 µM (inactive) | > 100 µM (inactive) | > 100 µM (inactive) | > 100 µM (inactive) | > 100 µM (inactive) | > 100 µM (inactive) | 
CCOc1ccc2c(c1)c(=O)c1c(NCCN(CC)CC)ccc3nnn2c31 | > 41.6 µM (inactive) | 14.9 µM (inactive) | 16.9 µM | 15.1 µM (inactive) | 7.05 µM (inactive) | > 100 µM (inactive) | 57 µM (inactive) | 20.7 µM (inactive) | 83.2 µM (inactive) | 16.3 µM (inactive) | 9.82 µM (inactive) | > 35.6 µM (inactive) | 12.3 µM (inactive) |  | > 71.3 µM (inactive) | > 39.5 µM (inactive) | 10.9 µM (inactive) | 16.9 µM (inactive) | 18.2 µM (inactive) | 
CNc1ncnc2c1cnn2Cc1cn(CCCCO)nn1 | > 100 µM (inactive) | > 100 µM (inactive) | > 100 µM | > 100 µM (inactive) | > 100 µM (inactive) | > 100 µM (inactive) | > 100 µM (inactive) | > 100 µM (inactive) | > 100 µM (inactive) | > 100 µM (inactive) | > 100 µM (inactive) | > 100 µM (inactive) | > 100 µM (inactive) |  | > 100 µM (inactive) | > 100 µM (inactive) | > 100 µM (inactive) | > 100 µM (inactive) | > 100 µM (inactive) | 
COC(=O)c1c(C)cccc1/C=C1\Cc2ccc(C)c(C)c2C1=O | > 100 µM (inactive) | > 100 µM (inactive) | > 100 µM | 56.2 µM (inactive) | > 100 µM (inactive) | 76.7 µM (inactive) | > 100 µM (inactive) | > 100 µM (inactive) | > 100 µM (inactive) | > 100 µM (inactive) | > 100 µM (inactive) | > 100 µM (inactive) |  | 40.6 µM (inactive) | > 100 µM (inactive) | > 100 µM (inactive) | > 100 µM (inactive) |  | 8.32 µM (inactive) | > 100 µM (inactive)
CC[C@@H](O)C[C@H]1CCC[C@@]2(C[C@@H]3OC(=O)/C=C/[C@@](C)(O)[C@@H](O)[C@H](C)[C@@H](O)[C@H](OC4CCC(N(C)C)C(C)O4)[C@@H](O)[C@](C)(O)CCCCC/C=C/[C@@H]4CC(C)(C)O[C@@]4(O)C[C@H](O2)[C@H]3C)O1 (some centres undefined) | < 0.01 µM (active) | < 0.01 µM (active) | 11.5 µM | < 0.01 µM (active) | < 0.01 µM (active) | < 0.01 µM (active) | 12.8 µM (inactive) | 3.61 µM (inactive) | < 0.01 µM (active) | < 0.01 µM (active) | 16.4 µM (inactive) | < 0.01 µM (active) |  |  | 12.6 µM (inactive) | < 0.01 µM (active) | 4.23 µM (inactive) | 0.927 µM (active) | < 0.01 µM (active) | 3.75 µM (inactive)
C/C=C\C(CC(=O)NCCC1CN(C(=O)c2ccccc2)c2ccccc21)CC(=O)OC (centres undefined) | > 100 µM (inactive) | > 100 µM (inactive) | > 100 µM | > 100 µM (inactive) | > 100 µM (inactive) | > 100 µM (inactive) | > 100 µM (inactive) | > 100 µM (inactive) | > 100 µM (inactive) | 97.3 µM (inactive) |  | > 100 µM (inactive) | > 100 µM (inactive) | > 100 µM (inactive) | > 100 µM (inactive) | > 100 µM (inactive) | > 100 µM (inactive) | > 100 µM (inactive) | > 100 µM (inactive) | 
CC(=O)OC(C(=O)NNC(=O)OC(C)(C)C)c1ccccc1 (centres undefined) | > 10 µM (inactive) | > 100 µM (inactive) | > 100 µM | > 100 µM (inactive) | > 100 µM (inactive) | > 100 µM (inactive) | > 100 µM (inactive) | > 100 µM (inactive) | > 100 µM (inactive) | > 100 µM (inactive) | > 100 µM (inactive) | > 100 µM (inactive) | > 100 µM (inactive) | > 100 µM (inactive) | > 100 µM (inactive) | > 100 µM (inactive) | > 100 µM (inactive) | > 100 µM (inactive) | > 100 µM (inactive) | 
O=C1CCCCC/C1=C\c1ccccc1 | > 100 µM (inactive) | > 100 µM (inactive) | > 100 µM | 56.4 µM (inactive) |  | > 100 µM (inactive) | > 100 µM (inactive) | > 100 µM (inactive) | > 100 µM (inactive) | 45 µM (inactive) | > 100 µM (inactive) | > 100 µM (inactive) |  | 87.3 µM (inactive) | > 100 µM (inactive) | > 100 µM (inactive) | 90.6 µM (inactive) | 76 µM (inactive) | > 100 µM (inactive) | 18.2 µM (inactive)
COc1ccccc1/N=N/c1c(O)c(S(=O)(=O)O)cc2cc(S(=O)(=O)O)ccc12 | > 100 µM (inactive) | > 100 µM (inactive) | > 100 µM | > 100 µM (inactive) | > 100 µM (inactive) | > 100 µM (inactive) | > 100 µM (inactive) | > 100 µM (inactive) | > 100 µM (inactive) | > 100 µM (inactive) | > 100 µM (inactive) | > 100 µM (inactive) | > 100 µM (inactive) | > 100 µM (inactive) | > 100 µM (inactive) | > 100 µM (inactive) |  | > 100 µM (inactive) | > 100 µM (inactive) | 
Cc1ccc(S(=O)(=O)OC2C(C3COC(C)(C)O3)OC3OC(C)(C)OC32)cc1 (centres undefined) | > 100 µM (inactive) | > 100 µM (inactive) | > 100 µM |  | > 100 µM (inactive) | > 100 µM (inactive) | > 100 µM (inactive) | > 100 µM (inactive) | > 100 µM (inactive) | > 100 µM (inactive) | > 100 µM (inactive) | > 100 µM (inactive) | > 100 µM (inactive) | > 100 µM (inactive) | > 100 µM (inactive) | > 100 µM (inactive) | > 100 µM (inactive) | > 100 µM (inactive) | > 100 µM (inactive) | 
O=C1OC(c2ccco2)=N/C1=C\c1cccc([N+](=O)[O-])c1 | > 100 µM (inactive) | > 100 µM (inactive) | > 100 µM | > 100 µM (inactive) | > 100 µM (inactive) | > 100 µM (inactive) | > 100 µM (inactive) | > 100 µM (inactive) | > 100 µM (inactive) | > 100 µM (inactive) | > 100 µM (inactive) | > 100 µM (inactive) |  | > 100 µM (inactive) | > 100 µM (inactive) | > 100 µM (inactive) | > 100 µM (inactive) | > 100 µM (inactive) | > 100 µM (inactive) | > 100 µM (inactive)
CCCCn1c2c(n(CCCC)c1=S)-c1c(n(CCCC)c(=S)n1CCCC)SSSS2 | 2.29 µM (inactive) | 3.31 µM (inactive) | 0.557 µM | 0.399 µM (active) | 0.718 µM (active) | 0.18 µM (active) | 3.82 µM (inactive) | 0.543 µM (active) | 1.31 µM (inactive) | 2.09 µM (inactive) | 3.1 µM (inactive) | 13.3 µM (inactive) | 15 µM (inactive) | 4.48 µM (inactive) | 0.973 µM (active) | 26.7 µM (inactive) | 30.8 µM (inactive) | 2.41 µM (inactive) | 0.371 µM (active) | 
